Results: US5783597A, “2,5-disubstituted thiophenes: inhibitors of 5-lipoxygenase and inducible cyclooxygenase (COX-2) enzymes, composition and use” (Ortho Pharmaceutical Corporation, priority 1997, dated 1998)
pIC50: −log10 of the molar value.

Experiments:
5-lipoxygenase (5-LO) [1] = target: T1, 5-lipoxygenase (5-LO) (Rattus norvegicus, UniProt P12527); assay: RBL-1 cell 5-lipoxygenase and cyclooxygenase - Homogenate (Procedure I); type: biochemical; conditions: RBL-1 homogenate supernatant, 5-HETE; read-out: Procedure I (5-LO) Homog. IC50
T1 construct: endogenous in cells; host or cells: intact RBL-1 (rat basophilic leukemia) cells, stimulated with calcium ionophore A23187
T1 sequence (P12527 1-673): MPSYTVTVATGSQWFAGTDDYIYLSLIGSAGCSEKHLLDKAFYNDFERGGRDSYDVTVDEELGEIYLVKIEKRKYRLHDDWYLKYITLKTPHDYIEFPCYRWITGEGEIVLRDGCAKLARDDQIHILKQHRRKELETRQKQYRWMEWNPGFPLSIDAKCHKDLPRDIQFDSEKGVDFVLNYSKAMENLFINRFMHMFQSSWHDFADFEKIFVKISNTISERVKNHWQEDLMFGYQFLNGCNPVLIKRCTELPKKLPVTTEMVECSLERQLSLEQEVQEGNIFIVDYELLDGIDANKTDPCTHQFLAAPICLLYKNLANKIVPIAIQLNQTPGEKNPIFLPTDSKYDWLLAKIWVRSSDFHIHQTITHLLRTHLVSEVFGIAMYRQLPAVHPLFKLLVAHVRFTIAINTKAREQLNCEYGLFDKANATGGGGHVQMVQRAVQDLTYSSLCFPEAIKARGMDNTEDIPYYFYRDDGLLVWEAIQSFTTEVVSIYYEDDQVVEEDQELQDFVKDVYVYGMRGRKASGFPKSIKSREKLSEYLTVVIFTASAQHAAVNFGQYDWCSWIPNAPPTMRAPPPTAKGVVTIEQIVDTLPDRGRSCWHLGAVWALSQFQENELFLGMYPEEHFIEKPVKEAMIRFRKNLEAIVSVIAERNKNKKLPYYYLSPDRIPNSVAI
Protocol: RBL-1 cell 5-lipoxygenase and cyclooxugenase - Homogenate
Rat basophilic leukemia cells (RBL-1; 5×10^7 viable cells/mL) were disrupted by homogenization on ice (four 20 sec bursts) with a Brinkman polytron. […] The homogenate was then centrifuged at 9,220×g for 48 minutes at 4° C. The pellet was discarded and the supernatant was saved as the source of enzymes. The supernatant was pre-incubated for five minutes at 37° C. in the presence of 2 mM of CaCl2 and compound or vehicle (1% DMSO). The conversion of AA into products by CO and LO was initiated by adding 10 μL (50 μCi) of 1-^14 C-AA to each tube and incubated at 37° C. for 20 minutes. The reaction was stopped by adjusting the pH of each sample to 3 to 3.5 with 2M formic acid. Samples were extracted with three volumes of chloroform to isolate the products of 5-LO formed during the reaction. Fractions were dried under nitrogen, then resuspended in 40 μL of chloroform and spotted onto silica gel HL plates. The plates were developed in A-9 solvent. The dried plates were analyzed using a Bioscan Imaging TLC scanner to determine the percentage of radiolabelled M converted to 5-HETE (LO product) and PGD2 (CO product) in each sample.

5-lipoxygenase (5-LO) [2] = target: T1, 5-lipoxygenase (5-LO); assay: RBL-1 cell 5-lipoxygenase and cyclooxygenase - Whole cells (Procedure II); type: cell-based; conditions: intact RBL-1 cells, 5-HETE; read-out: Procedure II (5-LO) Wh Cell IC50
Protocol: RBL-1 Cell 5-Lipoxygenase and cyclooxygenase - Whole cells
The ability to inhibit 5-LO and CO in intact RBL-1 cells was also evaluated. […] Cells were collected by centrifugation, washed once in HBSS, and resuspended at a concentration of 1×10^5 cells/mL. Cells were incubated in the presence of vehicle or drug then centrifuged at 800×g for 10 minutes at 4° C. The supernatant was removed by aspiration and the cells were resuspended in 0.5 mL of HBSS. […] The conversion of M to 5-LO products was initiated by the addition of 10 μL (50 uCi) of 1-^14 C-AA. Products were isolated by acidification and extraction, followed by thin layer chromatography analysis as described above. Radioactive areas corresponding to authentic 5-LO (5-HETE) and CO (PGD2) products were quantitated by the Bioscan 2000 Imaging System.

pIC50 (5-lipoxygenase (5-LO) [1]): 6.89 | pIC50 (5-lipoxygenase (5-LO) [2]): 6.34
SMILES: CS(=O)(=O)Nc1ccc(Oc2ccc(F)cc2)s1 [Example 1]
